Laboratory results taken from ChEMBL document CHEMBL1165924 (Bioorg Med Chem, 2010).

Key:
[1] = biological target: T1, Neuraminidase (Influenza A virus, UniProt B4URF0); experiment: Inhibition of Influenza A virus A/WSN/1933(H1N1) neuraminidase
[2] = Antiviral activity against Influenza A virus (A/WSN/1933(H1N1)) infected in MDCK cells assessed as inhibition of virus-induced cytopathicity; type: functional, organism-based
[3] = biological target: T1, Neuraminidase; experiment: Inhibition of Influenza A virus A/Vienna/83/58(H2N2) neuraminidase
[4] = biological target: T1, Neuraminidase
[5] = tested on: Influenza A virus; experiment: Antiviral activity against Influenza A virus (A/Singapore/1/1957 (H2N2)) infected in MDCK cells assessed as inhibition of virus-induced plaque formation; type: functional, organism-based

T1 sequence (B4URF0 whole entry): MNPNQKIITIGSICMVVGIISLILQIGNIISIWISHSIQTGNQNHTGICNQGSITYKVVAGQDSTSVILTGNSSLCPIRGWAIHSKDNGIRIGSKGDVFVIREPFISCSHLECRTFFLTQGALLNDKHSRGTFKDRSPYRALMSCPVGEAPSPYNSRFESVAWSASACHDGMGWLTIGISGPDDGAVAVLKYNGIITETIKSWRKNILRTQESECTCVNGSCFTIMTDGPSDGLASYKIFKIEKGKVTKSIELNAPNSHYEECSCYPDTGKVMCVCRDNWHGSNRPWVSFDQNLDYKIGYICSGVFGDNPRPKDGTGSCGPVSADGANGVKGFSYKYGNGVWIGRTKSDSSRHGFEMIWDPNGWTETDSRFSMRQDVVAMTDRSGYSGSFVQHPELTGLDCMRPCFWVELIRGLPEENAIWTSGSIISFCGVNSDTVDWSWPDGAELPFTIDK

| Compound | IC50 [1] [µM] | EC50 [2] [µM] | also measured |
| --- | --- | --- | --- |
| CC(=O)N[C@H]1[C@H]([C@H](O)[C@H](O)CO)OC(C(=O)O)=C[C@@H]1N(CCCC(=O)N1CCOCC1)C(=N)N | 33.3 | 37.6 |  |
| CC(=O)N[C@H]1[C@H]([C@H](O)[C@H](O)CO)OC(C(=O)O)=C[C@@H]1NCCCN | > 200 |  |  |
| CC(=O)N[C@H]1[C@H]([C@H](O)[C@H](O)CO)OC(C(=O)O)=C[C@@H]1NC1=NCCN1 | > 200 |  |  |
| CC(=O)N[C@H]1[C@H]([C@H](O)[C@H](O)CO)OC(C(=O)O)=C[C@@H]1NCCCCN | > 200 |  |  |
| CC(=O)N[C@H]1[C@H]([C@H](O)[C@H](O)CO)OC(C(=O)O)=C[C@@H]1O [NEU5AC2EN] |  |  | IC50 [3]: 190 µM |
| CC(=O)N[C@H]1[C@H]([C@H](O)[C@H](O)CO)OC(C(=O)O)=C[C@@H]1NCCCCC(=O)O | 80 |  |  |
| CC(=O)N[C@H]1[C@H]([C@H](O)[C@H](O)CO)OC(C(=O)O)=C[C@@H]1N(CCCCN)C(=N)N | > 200 |  |  |
| CC(=O)N[C@H]1[C@H]([C@H](O)[C@H](O)CO)OC(C(=O)O)=C[C@@H]1N(CCCC(=O)N1CCN(C)CC1)C(=N)N | 6.5 | 10.7 |  |
| CC(=O)N[C@H]1[C@H]([C@H](O)[C@H](O)CO)OC(C(=O)O)=C[C@@H]1NCCCC(=O)O | 70 |  |  |
| CC(=O)N[C@H]1[C@H]([C@H](O)[C@H](O)CO)OC(C(=O)O)=C[C@@H]1N(CCCC(=O)N1CCNCC1)C(=N)N | 2.15 | 0.77 |  |
| CC(=O)N[C@H]1[C@H]([C@H](O)[C@H](O)CO)OC(C(=O)O)=C[C@@H]1N=C(N)NCCCN | > 200 |  |  |
| CC(=O)N[C@H]1[C@H]([C@H](O)[C@H](O)CO)OC(C(=O)O)=C[C@@H]1N |  |  | Ki [4]: 0.04 µM; EC50 [5]: 1.5 µM |
| CC(=O)N[C@H]1[C@H]([C@H](O)[C@H](O)CO)OC(C(=O)O)=C[C@@H]1NC(=N)NCCCCN | > 200 |  |  |
| CC(=O)N[C@H]1[C@H]([C@H](O)[C@H](O)CO)OC(C(=O)O)=C[C@@H]1N(CCCN)C(=N)N | > 200 |  |  |
| CC(=O)N[C@H]1[C@H]([C@H](O)[C@H](O)CO)OC(C(=O)O)=C[C@@H]1NC(=N)N [ZANAMIVIR] |  | 0.013 |  |
| CC(=O)N[C@H]1[C@H]([C@H](O)[C@H](O)CO)OC(C(=O)O)=C[C@@H]1N(CCCC(=O)N1CCCCC1)C(=N)N | 23.1 | 45 |  |
| CC(=O)N[C@H]1[C@H]([C@H](O)[C@H](O)CO)OC(C(=O)O)=C[C@@H]1N(CCCC(=O)O)C(=N)N | 7.12 | 52 |  |
